Counter-ions that a name gives are not always drawn. Some results are limits rather than exact numbers.

The first test has as its system A549 human lung epithelium cell line. The experiment in a line: RANTES production in response to TNF-α from A549 cells. To be noted: A549 cells, 100 ng/ml TNF-α, read-out: Cellular activity grade (A549) (Cellular IC50). Format: cell-based. As to the method: [The Measurement of RANTES Production in Response to TNF-α from A549 Cells]
(1) Preparation of A549 Cells
• The A549 human lung epithelium cell line (ATCC […]) was maintained in Dulbecco's modified Eagle's medium (D-MEM, Nikken Biomedical Institute) supplemented with 10% FCS (Gibco), 100 U/ml penicillin, 100 μg/ml streptomycin, and 2 mM glutamine (culture medium). Forty thousand (4×10^4) cells (80 μl/well) were seeded in each well of 96 well flat-bottom tissue culture plate (Falcon #3072). The plate was allowed to stand for 2 hrs, thus the cells were adhered to the bottom of each well. To the each well was added 10 μl vehicle (1% DMSO), serial dilutions of test compounds in 1% DMSO, or 5 nM Dexamethasone in 1% DMSO as a reference. The mixture (90 μl/well) was incubated for 1 hr at 37° C. After 1 hr, 1 μg/ml TNF-α (10 μl) in culture medium was added to the mixture to obtain 100 μl of reaction mixture. The reaction mixture was cultured for 24 hrs to stimulate the cells with 100 ng/ml TNF-α. Cells with vehicle without TNF-α stimulation were also prepared. (2) Measurement of RANTES Production • Then the concentration of RANTES released from the cells in the supernatants of each well was determined using a quantitative sandwich enzyme immunoassay technique. First, 2 μg/ml mouse anti-huRANTES mAb (R&D Systems, #mAb678) in PBS buffer (pH 7.4, 100 μl) was put in each well of 96-well NUNC fluoro plate (Nalge Nunc, New York USA) (Final 200 ng/well) and the plate was allowed to stand for overnight at 4° C. to be coated by the antibody. Each well of the plate was then washed with 350 μl wash buffer (0.05% Tween-20, 0.85% NaCl, and 25 mM Tris/HCl pH7.4) for three times. Blocking buffer containing 1% BSA (Sigma 99% pure, 100 g), 5% sucrose (Nacalai tesque, 99% pure, 500 g), and 0.02% azide (Nacalai tesque, 100%, 500 g) were added (200 μl) to each well and then the plate was allowed to stand for 4 hours to stabilize the coated antibody. Next, 50 μl supernatants of cell culture prepared in (1) above were put in each well of the 96-well NUNC fluoro plate with coated antibody. Recombinant Human RANTES (Pepro Tech, Inc. #300-06) was used as the standard for the determination of RANTES production (linear range between 1 and 10 ng/ml). Eu-labelled mouse anti-huRANES mAb (60 ng/ml: R&D Systems, #mAb278) in PBS supplemented by 1% BSA and 0.05% Tween 20 was added (50 μl) to each well. The reaction mixtures were incubated at room temperature for 4 hrs. After washing with wash buffer (0.05% Tween-20, 0.85% NaCl, and 25 mM Tris/HCl pH7.4, 350 μl/well) for 5 times with the use of a Sera Washer (Bio-Tech, #MW-96R), the enhancement solution (DELFIA, #1244-405, 100 μl/well) was added to each well. The plate was incubated for 10 minutes at room temperature with moderate shaking. Fluorescent intensity was measured using a DELFIA fluorimeter (Wallac). Excitation was performed at 340 nm and emission was measured at 615 nm. [The Measurement of TNF-α Production in Response to LPS from Peripheral Blood Mononuclear Cells (PBMC)] (1) Preparation of PBMC • Human PBMC were prepared by first obtaining blood from healthy donors and isolating the cells from the blood. The isolation was done by Ficoll gradient-centrifugation method using Ficoll Pacque (Pharmacia #17-1440-02). Within three hours from donation, the isolated PBMC was used. After three times washing with PBS, PBMC were resuspended with RPMI 1640 (Nikken BioMedical Institute) supplemented with 10% FCS (Gibco), 100 U/ml penicillin, 100 μg/ml streptomycin, and 2 mM glutamine (culture medium). The cells (1×10^5 in 150 μL/well) were seeded in each well of 96 well flat-bottom tissue culture plate (Falcon #3072). To the each well was added 20 μl vehicle (1% DMSO), serial dilutions of test compounds in 1% DMSO, or 250 nM Dexamethasone in 1% DMSO as a reference. The mixture (170 μl/well) was incubated for 1 hr at 37° C. After 1 hr, 20 ng/ml LPS (30 μl) in culture medium was added to the mixture to obtain 200 μl of reaction mixture. […]
By IC50 is commonly meant the point on the concentration scale where inhibition reaches its midpoint. Regarding `Nc1nc(-c2ccccc2O)cc2c1CNC2Cc1ccccc1` (stereo in doubt) [Example 20-3, 2-[(1S)-4-amino-1-benzyl-2,3-dihydro-1H-pyrrolo[3,4-c]pyridin-6-yl]phenol hydrochloride], the half-maximal inhibitory concentration (IC50) lay in the range of 1000 to 10000 nM.

The same test, now with this note: Homo sapiens, A549, A549 cells, 100 ng/ml TNF-α, read-out: Cellular activity grade (A549) (Cellular IC50).
For `Nc1nc(-c2c(O)cccc2OCC2CC2)cc(C2CCCNC2)c1CSc1ccccc1` (stereo not drawn) [Example 21-1, 2-[6-amino-5-[(phenylsulfanyl)methyl]-4-(3-piperidinyl)-2-pyridinyl]-3-(cyclopropylmethoxy)phenol hydrochloride], the IC50 is 1000 to 10000 nM. The same measure, in the same setting: under `Nc1nc(-c2c(O)cccc2OCC2CC2)cc(C2CCNCC2)c1COc1ccccc1` [Example 21-3, 2-[6-amino-5-(phenoxymethyl)-4-(4-piperidinyl)-2-pyridinyl]-3-(cyclopropylmethoxy)phenol hydrochloride] stands less than 1000 nM. For `O=C(O)c1cc2c(C3CCCNC3)cc(-c3c(O)cccc3OCC3CC3)nc2[nH]c1=O` (stereo not drawn) [Example 30-1, 7-(2-cyclopropylmethoxy-6-hydroxy-phenyl)-2-oxo-5-piperidin-3-yl-1,2-dihydro[1,8]naphthyridine-3-carboxylic acid hydrochloride], the IC50 fell in the range of 1000 to 10000 nM.

Turning to `O=C1Nc2nc(-c3ccccc3O)cc(C3=CCCNC3)c2CO1` [Example 18-6], the IC50 was less than 1000 nM. On the same count and under the same terms, under `CNc1nc(-c2ccccc2O)cc(C2CCCNC2)c1C#N` (stereo not drawn) [Example 4-3, 6-(2-hydroxyphenyl)-2-(methylamino)-4-(3-piperidinyl)nicotinonitrile hydrochloride] stands greater than 10000 nM. Still for that read-out and setting: under `N#Cc1c(N2CCC(C(N)=O)CC2)cc(-c2ccccc2O)nc1N` [Example 34-2, 1-[2-amino-3-cyano-6-(2-hydroxyphenyl)-4-pyridinyl]-4-piperidinecarboxamide] stands greater than 10000 nM; under `CNC(=O)c1c(C2CCCNC2)cc(-c2ccccc2O)nc1N` (stereo not drawn) [Example 8-2, 2-amino-6-(2-hydroxyphenyl)-N-methyl-4-(3-piperidinyl)nicotinamide hydrochloride], 1000 to 10000 nM; under `N#Cc1c(C2CCCN(Cc3ccccc3)C2)cc(-c2c(O)cccc2OCC2CC2)nc1N` (stereo not drawn) [Example 3-2, 2-amino-4-(1-benzyl-3-piperidinyl)-6-[2-(cyclopropylmethoxy)-6-hydroxyphenyl]nicotinonitrile], greater than 10000 nM. On the same count and under the same terms, under `N#Cc1ccc(-c2ccccc2O)nc1N` [Example 33-1, 2-amino-6-(2-hydroxyphenyl)nicotinonitrile] stands 1000 to 10000 nM; under `CC(O)c1c(C2CCCNC2)cc(-c2ccccc2O)nc1N` (stereo not drawn) [Example 15-1, 2-[6-amino-5-(1-hydroxyethyl)-4-(3-piperidinyl)-2-pyridinyl]phenol hydrochloride], 1000 to 10000 nM. With `O=C1NCc2c(C3CCCNC3)cc(-c3ccccc3O)nc2N1` (stereo not drawn) [Example 22-1, 7-(2-hydroxyphenyl)-5-(3-piperidinyl)-3,4-dihydropyrido[2,3-d]pyrimidin-2(1H)-one hydrochloride], the IC50 was in the range of 1000 to 10000 nM. The same measure, in the same setting: under `N#Cc1c(N2CCOCC2)cc(-c2ccccc2O)nc1N` [Example 34-1, 2-amino-6-(2-hydroxyphenyl)-4-(4-morpholinyl)nicotinonitrile] stands greater than 10000 nM; under `N#Cc1c(NC2CCCNC2)cc(-c2ccccc2O)nc1N` (stereo not drawn) [Example 34-4, 2-amino-6-(2-hydroxyphenyl)-4-(3-piperidinylamino)nicotinonitrile hydrochloride], less than 1000 nM.

Consider `Oc1cccc(OCC2CC2)c1-c1cc(C2CCCNC2)c2c(n1)NCCC2` (stereo not drawn) [Example 28-01, 3-(cyclopropylmethoxy)-2-[4-(3-piperidinyl)-5,6,7,8-tetrahydro-1,8-naphthyridin-2-yl]phenol], for which the IC50 was less than 1000 nM.

Regarding `NC(Cc1ccccc1)c1cc(-c2ccccc2O)nc2c1COC(=O)N2` (stereo not drawn) [Example 18-4/18-5, 5-(1-Amino-2-phenyl-ethyl)-7-(2-hydroxy-phenyl)-1,4-dihydro-pyrido[2,3-d][1,3]oxazin-2-one hydrochloride], the IC50 was in the range of 1000 to 10000 nM.

Take `CC(=O)NCc1c(C2CCCNC2)cc(-c2c(O)cccc2OCC2CC2)nc1N` (stereo not drawn) [Example 23-1, N-{[2-amino-6-[2-(cyclopropylmethoxy)-6-hydroxyphenyl]-4-(3-piperidinyl)-3-pyridinyl]methyl}acetamide hydrochoride]: the IC50 was less than 1000 nM. In the case of `CC(=O)N1Cc2c(C3CCCNC3)cc(-c3c(O)cccc3OCC3CC3)nc2NC1=O` (stereo not drawn) [Example 24-1, 3-acetyl-7-[2-(cyclopropylmethoxy)-6-hydroxyphenyl]-5-(3-piperidinyl)-3,4-dihydropyrido[2,3-d]pyrimidin-2(1H)-one hydrochloride], the half-maximal inhibitory concentration (IC50) is less than 1000 nM. Take `CS(=O)(=O)NC(=O)c1cc2c(C3CCCNC3)cc(-c3c(O)cccc3OCC3CC3)nc2[nH]c1=O` (stereo not drawn) [Example 31-2, N-{[7-[2-(cyclopropylmethoxy)-6-hydroxyphenyl]-2-oxo-5-(3-piperidinyl)-1,2-dihydro-1,8-naphthyridin-3-yl]carbonyl}methanesulfonamide hydrochloride]: the IC50 lay in the range of 1000 to 10000 nM. Turning to `Oc1ccccc1-c1cc(C2CCCNC2)c2cn[nH]c2n1` (stereo not drawn) [Example 16-1, 2-(4-Piperidin-3-yl-1H-pyrazolo[3,4-b]pyridin-6-yl)-phenol hydrochloride], the IC50 lay within 1000 to 10000 nM. On the same count and under the same terms, under `N#Cc1c(C2CCCNC2)cc(-c2ncccc2O)nc1N` (stereo not drawn) [Example 1-6, 6-amino-3′-hydroxy-4-(3-piperidinyl)-2,2′-bipyridine-5-carbonitrile hydrochloride] stands less than 1000 nM; under `Nc1nc(-c2c(O)cccc2F)cc(C2CCCNC2)c1CO` (stereo not drawn) [Example 11-2, 2-[6-amino-5-(hydroxymethyl)-4-(3-piperidinyl)-2-pyridinyl]-3-fluorophenol hydrochloride], less than 1000 nM; under `N#Cc1c(C2=CCCNC2)cc(-c2ccccc2O)nc1N` [Example 1-9, 2′-amino-6′-(2-hydroxyphenyl)-1,2,5,6-tetrahydro-3,4′-bipyridine-3′-carbonitrile hydrochloride], less than 1000 nM. The same measure, in the same setting: under `Nc1nc(-c2ccccc2O)cc2c1C(=O)N1CCCC2C1` (stereo not drawn) [Example 8-1, 6-amino-4-(2-hydroxy-phenyl)-5,9-diaza-tricyclo[7.3.1.0^2,7]trideca-2(7),3,5-trien-8-one] stands 1000 to 10000 nM; under `N#Cc1c(C2CCCNC2)cc(-c2sccc2O)nc1N` (stereo not drawn) [Example 1-7, 2-amino-6-(3-hydroxy-2-thienyl)-4-(3-piperidinyl)nicotinonitrile hydrobromide], less than 1000 nM; under `Nc1nc(-c2c(O)cccc2OCC2CC2)cc(C2CCNCC2)c1CON1C(=O)CCC1=O` [Example 21-4, 1-{[2-amino-6-[2-(cyclopropylmethoxy)-6-hydroxyphenyl]-4-(4-piperidinyl)-3-pyridinyl]methoxy}-2,5-pyrrolidinedione hydrochloride], less than 1000 nM. On the same count and under the same terms, under `N#Cc1c(N2CCCC(N)C2)cc(-c2ccccc2O)nc1N` (stereo not drawn) [Example 34-3, 2-amino-4-(3-amino-1-piperidinyl)-6-(2-hydroxyphenyl)nicotinonitrile hydrochloride] stands 1000 to 10000 nM.

The values above are taken from patent US6984649B1, “Pyridine derivatives” (Bayer Aktiengesellschaft, priority 2000, dated 2006).
